Test results taken from US20140162876A1, “Fungicidal substituted 1--1H-[1,2,4]triazole compounds” (BASF SE, priority 2011, published 2014).

What was measured:
[1] = system: Septoria tritici; assay: G1 Preventative control of leaf blotch on wheat caused by Septoria tritici (Septtr P7), green house; assay type: in vivo; settings: wheat sprayed 7 days before inoculation, % diseased leaf area, untreated control 80
Experimental: The spray solutions were prepared in several steps: The stock solution were prepared: a mixture of acetone and/or dimethylsulfoxide and the wetting agent/emulsifier Wettol, which is based on ethoxylated alkylphenoles, in a relation (volume) solvent-emulsifier of 99 to 1 was added to 25 mg of the compound to give a total of 5 ml. Water was then added to total volume of 100 ml. This stock solution was diluted with the described solvent-emulsifier-water mixture to the given concentration. G1 Preventative Control of Leaf Blotch on Wheat Caused by Septoria tritici (Septtr P7) Leaves of pot-grown wheat seedling were sprayed to run-off with an aqueous suspension of the active compound or their mixture, prepared as described. The plants were allowed to air-dry. Seven days later the plants were inoculated with an aqueous spore suspension of Septoria tritici. Then the trial plants were immediately transferred to a humid chamber at 18-22° C. and a relative humidity close to 100%. […] After 4 weeks the extent of fungal attack on the leaves was visually assessed as % diseased leaf area.

[2] = system: Phakopsora pachyrhizi; assay: G4 Protective control of soy bean rust on soy beans caused by Phakopsora pachyrhizi (Phakpa P2), green house; assay type: in vivo; settings: soy bean sprayed 2 days before inoculation, % diseased leaf area, untreated control 90
[3] = system: Septoria tritici; assay: M4 Activity against leaf blotch on wheat caused by Septoria tritici (Septtr), microtest; assay type: cell-based; settings: microtiter plate, 7 days after inoculation
[4] = system: Botrytis cinerea; assay: M2 Activity against the grey mold Botrytis cinerea in the microtiterplate test (Botrci); assay type: cell-based; settings: microtiter plate, 7 days after inoculation
[5] = system: Alternaria solani; assay: M3 Activity against early blight caused by Alternaria solani (Alteso), microtest; assay type: cell-based; settings: microtiter plate, 7 days after inoculation
[6] = system: Septoria tritici; assay: G2 Curative control of leaf blotch on wheat caused by Septoria tritici (Septtr K7), green house; assay type: in vivo; settings: wheat sprayed 7 days after inoculation (curative), % diseased leaf area, untreated control 80
Experimental: The spray solutions were prepared in several steps: The stock solution were prepared: a mixture of acetone and/or dimethylsulfoxide and the wetting agent/emulsifier Wettol, which is based on ethoxylated alkylphenoles, in a relation (volume) solvent-emulsifier of 99 to 1 was added to 25 mg of the compound to give a total of 5 ml. Water was then added to total volume of 100 ml. This stock solution was diluted with the described solvent-emulsifier-water mixture to the given concentration. G2 Curative Control of Leaf Blotch on Wheat Caused by Septoria tritici (Septtr K7) Leaves of pot-grown wheat seedling were inoculated with an aqueous spore suspension of Septoria tritici. Then the trial plants were immediately transferred to a humid chamber at 18-22° C. and a relative humidity close to 100%. […] Seven days after inoculation the plants were sprayed to run-off with an aqueous suspension of the active compound or their mixture, prepared as described. […] After 4 weeks the extent of fungal attack on the leaves was visually assessed as % diseased leaf area.

[7] = system: Pyricularia oryzae; assay type: cell-based; settings: microtiter plate, 7 days after inoculation

Structure (SMILES) | Disease (%) at 16 ppm Septtr P7 [1] | Disease (%) at 16 ppm Phakpa P2 [2] | Disease (%) at 0.032 ppm Septtr [3] | Disease (%) at 2 ppm Botrci [4] | Disease (%) at 0.125 ppm Alteso [5] | Disease (%) at 250 ppm Phakpa P2 [2] | Disease (%) at 250 ppm Septtr K7 [6] | Disease (%) at 0.125 ppm Pyrior [7]
COC(C)(Cn1cncn1)c1ccc(Oc2ccc(Cl)cc2)cc1Cl (stereo not shown) | 80% | – | – | – | – | – | – | –
CCC(Cn1cncn1)(OC)c1ccc(Oc2ccc(Cl)cc2)cc1Cl (stereo not shown) | – | 80% | – | – | – | – | – | –
CCOC(C)(Cn1cncn1)c1ccc(Oc2ccc(Cl)cc2)cc1Cl (stereo not shown) [Compound I-1] | 40% | – | 5% | 0% | 25% | 5% | 10% | 50%
CCOC(CC)(Cn1cncn1)c1ccc(Oc2ccc(Cl)cc2)cc1Cl (stereo not shown) [Compound I-2, 1-[2-[2-chloro-4-(4-chlorophenoxy)phenyl]-2-ethoxy-butyl]-1,2,4-triazole] | – | 40% | – | – | – | – | – | –
CCOC(Cn1cncn1)c1ccc(Oc2ccc(Cl)cc2)cc1Cl (stereo not shown) [drawing 21] | – | – | – | – | – | 30% | 40% | –
CCOC(Cn1cncn1)c1ccc(Oc2ccc(Cl)cc2)cc1Cl (stereo not shown) [drawing 24] | – | – | 31% | 24% | 44% | – | – | 84%
